Source: the supplement of paper PMC10307832

Columns and labels:
Test in all cases: relative viability (nuclei count vs DMSO), 5 days (fraction); higher = more cells survive
[1] = compound: CN[C@@H]1C[C@H]2O[C@@](C)([C@@H]1OC)n1c3ccccc3c3c4c(c5c6ccccc6n2c5c31)C(=O)NC4 [Staurosporine] + CC1(C)CCC(c2ccc(Cl)cc2)=C(CN2CCN(c3ccc(C(=O)NS(=O)(=O)c4ccc(N[C@H](CCN5CCOCC5)CSc5ccccc5)c(S(=O)(=O)C(F)(F)F)c4)cc3)CC2)C1 [Navitoclax] (partner 0.5 µM)
In short: (§1)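 A single step with final 0.05% Triton X-100, 1% formaldehyde and 1 ug/ml Hoechst fixed the cells and stained nuclei 5 days after treatment. Lung cancer cell lines in 1536-well plates had been treated by pin tool the day after seeding with one drug alone or a fixed anchor-drug dose plus five library-drug doses (not always all listed) in √10 steps, and nuclei were counted on 4× images. Relative viability is the ratio of nuclei in treated wells to nuclei in vehicle wells, taken as the median of duplicate plates.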

[2] = compound: O=c1[nH]cc(F)c(=O)[nH]1 [5-Fluorouracil] + CC(=O)c1c(C)c2cnc(Nc3ccc(N4CCNCC4)cn3)nc2n(C2CCCC2)c1=O [Palbociclib] (partner 0.5 µM)
In short: as §1

[3] = compound: O=c1[nH]cc(F)c(=O)[nH]1 [5-Fluorouracil] + CS(=O)(=O)CCNCc1ccc(-c2ccc3ncnc(Nc4ccc(OCc5cccc(F)c5)c(Cl)c4)c3c2)o1 [Lapatinib] (partner 2 µM)
In short: as §1

[4] = compound: O=c1[nH]cc(F)c(=O)[nH]1 [5-Fluorouracil] + CCNC(=O)c1noc(-c2cc(C(C)C)c(O)cc2O)c1-c1ccc(CN2CCOCC2)cc1 [Luminespib] (partner 0.01 µM)
In short: as §1

Row | Cell Line | relative viability ([1]; first compound 0.005 µM) | relative viability ([1]; first compound 0.01581 µM) | relative viability ([1]; first compound 0.05 µM) | relative viability ([1]; first compound 0.1581 µM) | relative viability ([1]; first compound 0.5 µM) | relative viability ([2]; first compound 0.02 µM) | relative viability ([2]; first compound 0.2 µM) | relative viability ([2]; first compound 0.6325 µM) | relative viability ([2]; first compound 2 µM) | relative viability ([3]; first compound 0.02 µM) | relative viability ([3]; first compound 0.2 µM) | relative viability ([3]; first compound 0.6325 µM) | relative viability ([3]; first compound 2 µM) | relative viability ([4]; first compound 0.02 µM) | relative viability ([4]; first compound 0.2 µM) | relative viability ([4]; first compound 0.6325 µM) | relative viability ([4]; first compound 2 µM)
1 | HCC-78 | 0.711 | 0.563 | 0.553 | 0.358 | 0.206 | 0.467 | 0.529 | 0.496 | 0.451 | 0.768 | 1.2 | 0.265 |  |  |  |  | 
2 | HCC-366 | 1.03 |  | 0.5 | 0.0585 | 0.0142 | 0.404 | 0.332 | 0.154 | 0.0646 | 0.996 | 0.945 | 0.523 | 0.0471 |  |  |  | 
3 | HCC-827 | 1.06 |  | 0.768 | 0.725 | 0.488 | 0.46 | 0.455 | 0.231 | 0.255 | 0.159 | 0.203 | 0.191 | 0.187 | 0.399 | 0.691 | 0.465 | 0.239
4 | HOP-62 | 0.957 | 0.528 | 0.152 | 0.121 | 0.104 | 0.409 | 0.573 | 0.404 | 0.439 | 0.797 | 1.03 | 0.986 | 0.956 | 0.953 | 0.92 | 0.853 | 0.855
5 | IA-LM | 0.242 |  | 0.257 | 0.0433 | 0.0163 |  |  |  |  | 0.812 | 0.461 | 0.293 | 0.352 |  |  |  | 
6 | LC-2-ad | 0.473 | 0.202 | 0.172 | 0.0798 | 0.0689 | 0.519 | 0.523 | 0.467 | 0.325 | 1.05 | 0.975 | 0.255 | 0.264 | 1.09 | 0.666 | 0.407 | 0.337
7 | LCLC-97TM1 | 0.732 | 0.283 | 0.286 | 0.31 | 0.223 | 0.221 | 0.228 | 0.215 | 0.157 | 0.693 | 0.857 | 0.617 | 0.272 | 0.627 | 0.808 | 0.613 | 0.334
8 | LCLC-103H |  |  |  |  |  | 0.476 | 0.472 | 0.471 | 0.471 |  |  |  |  | 0.951 | 0.999 | 0.521 | 0.28
9 | LK-2 | 0.965 | 0.54 | 0.456 | 0.109 | 0.0967 | 0.568 | 0.618 | 0.155 | 0.257 | 1.17 | 1.08 | 0.697 | 0.535 |  |  |  | 
10 | NCI-H322M | 1.36 | 1.15 | 0.771 | 0.586 | 0.462 |  |  |  |  | 0.615 | 0.598 | 0.559 | 0.467 | 0.841 | 1 | 0.724 | 0.552
11 | NCI-H358 |  |  |  |  |  | 0.157 | 0.146 | 0.15 | 0.177 | 0.509 | 0.508 | 0.435 | 0.352 | 0.388 | 0.307 | 0.308 | 0.145
12 | NCI-H441 | 0.521 | 0.333 | 0.325 | 0.16 | 0.17 | 0.238 | 0.264 | 0.178 | 0.249 |  |  |  |  | 0.447 | 0.39 | 0.384 | 0.242
13 | NCI-H522 |  |  |  |  |  | 1 | 1.05 | 0.96 | 0.992 |  |  |  |  | 1.14 | 1.19 | 1.17 | 0.961
14 | NCI-H596 | 1.11 | 0.665 | 0.322 | 0.179 | 0.0954 |  |  |  |  | 1.05 | 0.944 | 0.645 | 0.516 | 1 | 0.728 | 0.726 | 0.542
15 | NCI-H650 |  |  |  |  |  | 0.316 | 0.278 | 0.244 | 0.263 | 0.555 | 0.681 | 0.524 | 0.455 | 0.766 | 0.533 | 0.348 | 0.277
16 | NCI-H661 |  |  |  |  |  | 0.407 | 0.436 | 0.425 | 0.419 | 0.482 | 0.526 | 0.558 | 0.51 | 0.942 |  | 0.955 | 0.888
17 | NCI-H1299 | 1.06 | 0.739 | 0.459 | 0.239 | 0.199 |  |  |  |  | 1.05 | 0.978 | 0.959 | 0.817 |  |  |  | 
18 | NCI-H1563 |  |  |  |  |  |  |  |  |  | 0.769 | 0.942 | 0.975 | 0.74 | 0.49 | 0.478 | 0.499 | 0.488
19 | NCI-H1623 |  |  |  |  |  |  |  |  |  |  |  |  |  | 0.395 | 0.361 | 0.412 | 0.364
20 | NCI-H1648 |  |  |  |  |  | 0.297 | 0.267 | 0.281 | 0.241 |  |  |  |  |  |  |  | 
21 | NCI-H1703 | 0.293 | 0.207 | 0.143 | 0.132 | 0.0869 |  |  |  |  | 1.23 | 1.44 | 1.09 | 0.556 |  |  |  | 
22 | NCI-H2342 |  |  |  |  |  | 0.497 | 0.543 | 0.536 | 0.518 |  |  |  |  | 0.807 | 0.731 | 0.616 | 0.467
23 | SW 900 |  |  |  |  |  | 0.481 | 0.473 | 0.497 | 0.416 |  |  |  |  | 0.153 | 0.161 | 0.213 | 0.196
